Common to all, as to type: cell-based, human
One experiment deals with RPMI 8226 myeloma cells. As to the kind of experiment: Cell proliferation assay, RPMI 8226. To be noted: dose-dependent.
In the next experiment the test system is HT1080 cells. As to the kind of experiment: TUNEL staining, HT1080 cells under hypoxia. To be noted: 2.5 μM; 48 hours of hypoxia. The procedure:
A. Effect of irestatin 9389 on PERK and ATF6 pathways. HT1080 cells were treated with vehicle alone (lanes 1-4) or 2.5 μM irestatin 9389 (lanes 5-8) and cultured under aerobic conditions for 18 hours (N) or shifted to hypoxia for the indicated times. Protein lysates were analyzed by Western blot analysis using antisera specific for ATF6 (top), CHOP/GADD153 (middle) or actin (bottom). Arrow indicates the cleaved, transcriptionally active form of ATF6. B. Cleavage of caspase-3 in irestatin-treated cells under hypoxia. HT1080 cells were cultured in normoxia (N) or under hypoxia for 36 hours (H 36) in absence or presence of irestatin 9389 (2.5 μM). Arrows indicate proteolytically cleaved caspase-3. C. Colony formation assay. HT1080 cells were treated as in B under normoxia (N) or hypoxia for 48 hours (H 48). Cells were harvested, counted, and allowed to grow under normal culture conditions for 11-12 days. Colonies were visualized with crystal violet staining. D. Quantification of clonogenic survival assay. Values represent the mean+/−SEM from at least 4 independent experiments. E. TUNEL staining of cells treated as in C. F. Quantification of TUNEL-positive cells. Values represent the mean+/− SEM from at least 3 experiments. […] Cells were harvested at the indicated times and counted by hemocytometer. Values represent the mean calculated from triplicate experiments+/−SEM. […]

Another experiment deals with Grp78. As to the kind of experiment: Western immunoblot of Grp78, HT1080 cells. The conditions noted are these: irestatin 9389 2.5 μM, 16 hours (also 24 or 36 hours). The procedure:
Cells (2×10^6) were cultured in 10-cm dishes, collected using a cell scraper at 4° C., and lysed by addition of 150 μl cell lysis buffer [50 mM Tris pH 7.4, 150 mM NaCl, 10% glycerol, 0.5% Triton X-100. 0.5% NP-40, 2 mM Na3VO4, 20 mM beta-glycerophosphate, 10 mM NaF, 1 mM DTT, 1 mM PMSF). Lysates were centrifuged for 5 min at 10,000×g, and proteins (˜40 μg) were resolved by SDS-PAGE followed by semi-dry transfer to nitrocellulose membranes. Membranes were blocked in TBS-5% milk supplemented with 0.1% Tween-20. The blots were then probed overnight with relevant antibodies, washed, and incubated for 2 hours with species-specific secondary antibodies conjugated to horseradish peroxidase. After washing in block solution, immunoreactive material was detected by enhanced chemiluminescence (SuperSignal West Dura Extended, Pierce, Inc., Rockville, Ill.).
HT1080 cells were exposed to DMSO vehicle (lane 1), irestatin 9389 (2.5 μM; lane 2) for 16 hours or Tm (5 μg/ml; lane 3) for 8 hours. Following treatments, cells were harvested, lysed, and analyzed by immunoblotting using anti-Grp78 antibody (top) or anti-actin (bottom) as a loading control. […] Cell lysates were analyzed by Western immunoblotting using anti-IRE1α (bottom) or anti-phospho-IRE1α antibodies (top). […] Lysates were analyzed by Western blot using antisera specific for phospho-JNK1 (top) or total JNK1 (bottom). […]
Background: In western blotting, separated proteins are transferred to a membrane and probed.

Results on 1 compound are retold here after patent US20130150399A1, “INHIBITORS OF THE UNFOLDED PROTEIN RESPONSE AND METHODS FOR THEIR USE” (The Board of Trustees of the Leland Stanford Junior …, priority 2006, published 2013).

As to `Cc1csc(NC(=O)CSc2nc3c(c(C(F)(F)F)c2C#N)CCC3)n1` [Compound 9389], the “growth of RPMI 8226” value in the experiment with RPMI 8226 myeloma cells was “strongly inhibited the growth”. In addition, in the experiment on HT1080 cells, the TUNEL-positive cells is given as 35%. Moreover, in the experiment with Grp78, the Grp78 levels result was “no effect on Grp78 levels”.
